# What was measured:
# [1] = tested on: Smad2/Smad3 phosphorylation; assay: Phospho-Smad2/3 Inhibition Assay (western blot), Panc-1; format: cell-based, human; details: at 10 μM, Panc-1 pancreatic cancer cell line; starred symbols = activation
# Procedure, shortened: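 Panc-1 cells (KRas G12D), starved overnight in 0.5% FBS, treated 3 h at 37° C with compound at 10 μM final (0.3% DMSO) or serial dilutions for IC50, then stimulated with 10 ng/ml TGF-b1 for 1 h. Phospho-Smad2 (Ser465/467) and phospho-Smad3 (Ser423/425) detected by western blot.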
# KRas G12C mutant = assay: Ras GTP Binding Domain Inhibition Assay (Ras Superfamily Assay); details: 20 μM compound; for KRas G12C mutant + SOS: % inh.: with SOS; for KRas G12C mutant: % inh.: without SOS
# Procedure, shortened: (§1)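 His-tagged GTPases immobilised on nickel-coated plates, pre-incubated with compound (20 μM single point, or serial dilution for IC50) 3 h at room temperature, with or without 10-30 μg/mL Sos (residues 556-1049) in the final hour. Bound Cy3- or Cy5-GTP (100 nM, 45 min) measured by fluorescence after washing.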
# KRas Q61H mutant = assay: as above; details: 20 μM compound; for KRas Q61H mutant + SOS: % inh.: with SOS; for KRas Q61H mutant: % inh.: without SOS
# Procedure, shortened: as §1
# Rho-A = target: T1, Rho-A (Homo sapiens, UniProt P61586); assay: as above; details: read-out: Rho-A: % inh..
# T1 construct: made in house
# T1 sequence (P61586 whole entry): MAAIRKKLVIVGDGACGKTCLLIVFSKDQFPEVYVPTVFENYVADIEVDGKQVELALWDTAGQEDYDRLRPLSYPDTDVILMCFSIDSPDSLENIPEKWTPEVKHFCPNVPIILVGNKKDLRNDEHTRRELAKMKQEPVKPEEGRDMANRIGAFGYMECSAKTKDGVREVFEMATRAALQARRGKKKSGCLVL
# Procedure, shortened: as §1
SMILES,% inh of Smad2/3 phosphorylation in Panc-1 [1],KRas G12C mutant + SOS: % inh. (KRas G12C mutant),KRas G12C mutant: % inh. (KRas G12C mutant),KRas Q61H mutant + SOS: % inh. (KRas Q61H mutant),KRas Q61H mutant: % inh. (KRas Q61H mutant),inhibition at 20 µM (Rho-A) [%]
"Cc1c(-c2ccn(C(C)C)n2)cn2nc(-c3nccn3C)nc(Nc3noc(C4CC4)n3)c12 [Compound 75, 5-Cyclopropyl-N-(6-(1-isopropyl-1H-pyrazol-3-yl)-5-methyl-2-(1-methyl-1H-imidazol-2-yl)pyrrolo[2,1-f][1,2,4]triazin-4-yl)-1,2,4-oxadiazol-3-amine]",A (A = 1-25% inhibition),A (A = 1-25% inhibition),A (A = 1-25% inhibition),B (B = 26-49% inhibition),A (A = 1-25% inhibition),50 to 75
"COCCO[C@H]1C[C@H](Nc2nc(-c3nccn3C)nn3cc(-c4ccn(C(C)C)n4)c(C)c23)C1 [Compound 92, 6-(1-Isopropyl-1H-pyrazol-3-yl)-N-((1r,3r)-3-(2-methoxyethoxy)cyclobutyl)-5-methyl-2-(1-methyl-1H-imidazol-2-yl)pyrrolo[2,1-f][1,2,4]triazin-4-amine]",A* (A* = 1-25% activation),0 (0 = 0% inhibition),0 (0 = 0% inhibition),A (A = 1-25% inhibition),0 (0 = 0% inhibition),1 to 25
"COc1cc(Nc2nc(-c3nccn3C)nn3cc(-c4ccn(C(C)C)n4)c(-c4ccccc4)c23)ncn1 [Compound 22, 6-(1-Isopropyl-1H-pyrazol-3-yl)-N-(6-methoxypyrimidin-4-yl)-2-(1-methyl-1H-imidazol-2-yl)-5-phenylpyrrolo[2,1-f][1,2,4]triazin-4-amine]",–,A (A = 1-25% inhibition),B (B = 26-49% inhibition),A (A = 1-25% inhibition),B (B = 26-49% inhibition),50 to 75
